# According to patent US20120208781A1, “AMINOGLYCOSIDE DOSING REGIMENS” (Achaogen, Inc., priority 2009, published 2012):
# Like-named read-outs stand apart in the source and are kept apart here.
# Assays:
# rat kidney [1] = assay: Rat nephrotoxicity model: serum markers of GFR (BUN, serum creatinine); type: in vivo, Sprague-Dawley rats; details: dose-response for BUN elevation
# A. baumannii (AB) = assay: MIC, broth microdilution, Brooklyn hospital isolates: A. baumannii; type: cell-based; details: AB (n = 38)
# Description: (§1) In another study, the activity of Compound 1 against a collection of contemporary Gram-negative bacteria was determined. Unique patient isolates of P. aeruginosa (PA), A. baumannii (AB), K. pneumoniae (KP), E. coli (EC), and Enterobacter spp. (EB) from prior surveys at 16 Brooklyn, N.Y. hospitals were selected based on resistance patterns. The majority of isolates were fingerprinted by automated ribotyping. MICs were performed by broth microdilution. PCR was used to identify aminoglycoside-modifying enzymes (AMEs) in AB and KP and the KPC gene in Enterobacteriaceae (EN). The expression of the efflux genes mexA, C, E and X in PA, and adeB in AB was assessed by real-time RT-PCR.
# P. aeruginosa (PA) = assay: MIC, broth microdilution, Brooklyn hospital isolates: P. aeruginosa; type: cell-based; details: PA (n = 33)
# Description: as §1
# cochlear hair cells = assay: Cytocochleogram analysis in 28-day guinea pig ototoxicity model; type: in vivo, guinea pigs; details: guinea pigs
# Description: Following euthanasia and whole body intravascular perfusion with 4% paraformaldehyde, the temporal bones of the left and right ears were removed. Gross middle ear assessments were performed using a dissecting microscope. […] Following gross middle ear assessment, the cochleas of the left ear were fixed by intrascalar perfusion with 4% paraformaldehyde. Cochlea tissues of both ears were placed in 4% paraformaldehyde for approximately 1 hour. Tissues were then transferred to 0.5% paraformaldehyde, stored refrigerated, and shipped on gel packs to the Kresge Hearing Research Institute, Ann Arbor, Mich., for further processing and cytocochleogram analysis.
# These guinea pig ototoxicity studies also included microscopic analysis of surgically dissected cochleas from each animal to assess hair cell damage (cytocochleograms). The underlying cause of aminoglycoside related hearing loss is damage to the hair cells of the auditory system after significant accumulation of aminoglycosides in the inner ear. In the cochlea, drug-induced hair cell loss typically progresses from the basal to the apical turns of the cochlea. Perception of high-frequency sounds, a function of the basal hair cells, is lost first; perception of low-frequency sounds, a function of the more apical hair cells, is the last to be lost (Selimoglu, E., Curr Pharm Des. 2007; 13(1):119-26). For obvious reasons, it is impractical to obtain cytocochleograms from each animal prior to dosing, and some hair cell loss is usually observed in control (vehicle dosed) animals in these guinea pig studies. This variability makes it difficult to determine whether hair cell loss observed post-treatment is due to the drug treatment, especially mild hair cell loss, […]
# hearing function = details: guinea pig, in vivo
# Description: The ototoxicity of aminoglycosides was investigated in 28-day studies in guinea pigs (executed at MPI Research Inc., Mattawan, Mich.). […] Animals assigned to the study had body weights within ±20% of the mean body weight. The vehicle and positive control articles were administered daily for 14 days during the study via bolus subcutaneous injection in the scapular region on the back of each animal. The control group received the vehicle in the same manner as the treated groups. Individual doses were based on the most recent body weights. […] The dose levels for these studies were selected based upon published accounts of aminoglycoside ototoxicity in the guinea pig using similar dosing regimes (e.g., Brummett, A. R. et al., J. Antimicrob Chemother, 1978 May; 4 Suppl A:73-83; Kitasato, I. et al., Chemotherapy, 1990; 36(2):155-68). Doses were chosen to maximize exposure while avoiding significant nephrotoxicity, which would have confounded the analysis given that aminoglycosides are renally cleared.
# Clinical observations were conducted predose (Day 1), immediately following the completion of each vehicle or positive control article administration on dosing days, and daily thereafter. Body weights were measured and recorded predose (Day 1) and daily thereafter. Physical examinations were conducted pretest and on Day 28.
# Bilateral in-vivo electrophysiology (auditory brainstem response) examinations were conducted pretest and prior to the terminal necropsy. Hearing function changes were measured by comparing auditory brainstem response (ABR) values at the end of the study period versus pre-dosing values of each individual animal. […] Additional ketamine and xylazine were administered as necessary. […] Following ABR evaluations, yohimbine (1 mg/kg) was administered via intraperitoneal (IP) injection as a reversal agent. At study termination (Day 29), necropsy examinations were performed, and designated tissues were collected, examined and rated, and preserved for processing and histopathological evaluation, as described below.
# Enterobacter spp. (EB) = assay: MIC, broth microdilution, Brooklyn hospital isolates: Enterobacter spp.; type: cell-based; details: EB (n = 30)
# Description: as §1
# E. coli (EC) = assay: MIC, broth microdilution, Brooklyn hospital isolates: E. coli; type: cell-based; details: EC (n = 32)
# Description: as §1
# rat kidney [2] = assay: Rat nephrotoxicity model: kidney histopathology (H&E); type: in vivo, Sprague-Dawley rats; details: rats, 14 d once-daily
# Description: This rat nephrotoxicity study design used 14 days of once-daily dosing of aminoglycosides in adult Sprague-Dawley rats. Rats were allowed full access to food and water, and aminoglycosides were dosed subcutaneously at 1 mL/kg dosing volume, formulated in water. Nephrotoxicity was assessed by monitoring changes in serum markers of glomerular filtration rate (GFR), namely blood urea nitrogen (BUN) and serum creatinine. Microscopic examination of kidney slices after fixation and hematoxylin and eosin (H&E) staining was also utilized, scoring for tubular dilation, cellular casts, interstitial inflammation, and regenerative changes to the tubules.
# K. pneumoniae (KP) = assay: MIC, broth microdilution, Brooklyn hospital isolates: K. pneumoniae; type: cell-based; details: KP (n = 71)
# Description: as §1
# [3] = system: Gram-negative and Gram-positive clinical isolates; assay: MIC, CLSI broth microdilution, 235 worldwide isolates (all); type: cell-based; details: 235 isolates
# Description: In the first study, a total of 235 isolates were collected from medical centers worldwide and tested for susceptibility to Compound 1 and comparator agents by CLSI broth microdilution methods. […] Non-ENT GN pathogens included WT P. aeruginosa (PSA) and Acinetobacter spp. (ACB), and carbapenem (CARB)-R strains, including those with MBL and OXA enzymes, SA and coagulase-negative staphylococci (CoNS) included oxacillin-susceptible (MSSA/MS-CoNS) and —R (MRSA/MR-CoNS) strains.
# (§2) Minimum inhibitory concentrations (MIC) were determined by reference Clinical and Laboratory Standards Institute (CLSI) broth microdilution methods per M7-A7 [2006]. Briefly, serial two-fold dilutions of Compound 1 and comparator AGs (together, “the test compounds”) were prepared at 2× concentration in appropriate diluent. The dilutions were mixed in 96-well assay plates with bacterial inoculum. Bacteria were suspended in sterile saline and added to each assay plate to obtain a final concentration of 5.5×10^5 CFU/mL. The plates were incubated at 35° C. for 20 hours in ambient air. […] After incubation, assay plates were read using a microtiter plate reader at 600 nm.
# Enterobacter = assay: MIC, further Brooklyn patient isolates: Enterobacter; type: cell-based; set-up: unit not given beside the values; details: Enterobacter (n = 206)
# Description: as §2
# (§3) Further studies analyzed a greater number of unique patient isolates obtained from Brooklyn, N.Y. hospitals (including those species described above). These species included Acinetobacter, E. coli, Enterobacter, Klebsiella, and Pseudomonas.
# Klebsiella = assay: MIC, further Brooklyn patient isolates: Klebsiella; type: cell-based; set-up: unit not given beside the values; details: Klebsiella (n = 1151)
# Description: as §2, §3
# E. coli = assay: MIC, further Brooklyn patient isolates: E. coli; type: cell-based; set-up: unit not given beside the values; details: E. coli (n = 3071)
# Description: as §2, §3
smiles,measurement,setting,value
NCC[C@H](O)C(=O)N[C@@H]1C[C@H](N)[C@@H](O[C@H]2O[C@H](CN)[C@@H](O)[C@H](O)[C@H]2O)[C@H](O)[C@H]1O[C@H]1O[C@H](CO)[C@@H](O)[C@H](N)[C@H]1O [amikacin],apparent relative nephrotoxicity (ranking),rat kidney [1],Neomycin≈Gentamicin>Tobramycin>Apramycin≈Paromomycin>Amikacin
same,Susceptible,A. baumannii (AB),82%
same,MIC50,A. baumannii (AB); Acinetobacter baumannii,8 µg/mL
same,MIC90,A. baumannii (AB); Acinetobacter baumannii,64 µg/mL
same,Susceptible,P. aeruginosa (PA),94%
same,MIC50,P. aeruginosa (PA); Pseudomonas aeruginosa,4 µg/mL
same,MIC90,P. aeruginosa (PA); Pseudomonas aeruginosa,16 µg/mL
same,animals with minimal loss of outer hair cells,cochlear hair cells; 75 mg/kg/day,3/6
same,animals with minimal loss of outer hair cells,cochlear hair cells; 150 mg/kg/day,3/6
same,animals with large loss of outer hair cells,cochlear hair cells; 300 mg/kg/day,All animals
same,animals with some loss of inner hair cells,cochlear hair cells; 300 mg/kg/day,3/6
same,"clinical observations, body weights, physical examinations, macroscopic observations",hearing function,no vehicle or positive control article-related changes in any dose group
same,number of animals with hearing loss,"hearing function; male, Crl:HA (Albino Hartley), 75 mg/kg, 14 days",1 of 6
same,number of animals with hearing loss,"hearing function; male, Crl:HA (Albino Hartley), 150 mg/kg, 14 days",2 of 6
same,ABR threshold shift,"hearing function; male, Crl:HA (Albino Hartley), 300 mg/kg/day, 14 days",> 15 dB
same,hearing loss (ABR threshold changes),"hearing function; male, Crl:HA (Albino Hartley), sc, 300 mg/kg, 14 days","hearing losses from moderate at 4 kHz, to severe at 10 kHz, and to profound at 20 kHz"
same,Susceptible,Enterobacter spp. (EB),93%
same,MIC50,Enterobacter spp. (EB); Enterobacter,4 µg/mL
same,MIC90,Enterobacter spp. (EB); Enterobacter,16 µg/mL
same,Susceptible,E. coli (EC),91%
same,MIC50,E. coli (EC); Escherichia coli,4 µg/mL
same,MIC90,E. coli (EC); Escherichia coli,16 µg/mL
same,Histopathology score (0 to 5 Scale): Casts,rat kidney [2]; 10 mg/kg,0 +/− 0
same,Histopathology score (0 to 5 Scale): Dilation,rat kidney [2]; 10 mg/kg,0.2 +/− 0.4
same,Histopathology score (0 to 5 Scale): Inflammation,rat kidney [2]; 10 mg/kg,0.4 +/− 0.5
same,Histopathology score (0 to 5 Scale): Regeneration,rat kidney [2]; 10 mg/kg,0.2 +/− 0.4
same,Histopathology score (0 to 5 Scale): Casts,rat kidney [2]; 30 mg/kg,0 +/− 0
same,Histopathology score (0 to 5 Scale): Dilation,rat kidney [2]; 30 mg/kg,0 +/− 0
same,Histopathology score (0 to 5 Scale): Inflammation,rat kidney [2]; 30 mg/kg,0.4 +/− 0.5
same,Histopathology score (0 to 5 Scale): Regeneration,rat kidney [2]; 30 mg/kg,0.2 +/− 0.4
same,Histopathology score (0 to 5 Scale): Casts,rat kidney [2]; 100 mg/kg,0 +/− 0
same,Histopathology score (0 to 5 Scale): Dilation,rat kidney [2]; 100 mg/kg,0.2 +/− 0.4
same,Histopathology score (0 to 5 Scale): Inflammation,rat kidney [2]; 100 mg/kg,0.6 +/− 0.5
same,Histopathology score (0 to 5 Scale): Regeneration,rat kidney [2]; 100 mg/kg,0.6 +/− 0.5
same,Histopathology score (0 to 5 Scale): Casts,rat kidney [2]; 300 mg/kg,0 +/− 0
same,Histopathology score (0 to 5 Scale): Dilation,rat kidney [2]; 300 mg/kg,1.2 +/− 0.8
same,Histopathology score (0 to 5 Scale): Inflammation,rat kidney [2]; 300 mg/kg,1.2 +/− 0.4
same,Histopathology score (0 to 5 Scale): Regeneration,rat kidney [2]; 300 mg/kg,1.4 +/− 0.5
same,Susceptible,K. pneumoniae (KP),58%
same,MIC50,K. pneumoniae (KP); Klebsiella pneumoniae,16 µg/mL
same,MIC90,K. pneumoniae (KP); Klebsiella pneumoniae,64 µg/mL
same,overall sensitivity (S),[3],77.0%
"C[C@@H](O)[C@H]1C(=O)N2C(C(=O)O)=C(S[C@@H]3CN[C@H](C(=O)N(C)C)C3)[C@H](C)[C@H]12 [MEM, meropenem]",MIC50,Enterobacter,≦0.125
same,MIC50,Klebsiella,≦0.125
same,MIC50,E. coli,≦0.125
same,MIC90,E. coli,≦0.125
